Experimental data as given in US4818749A, “Carboxyalkyl dipeptides and medical use thereof in treating hypertension and congestive heart failure” (Schering Corporation, priority 1981, dated 1989).

Molecular target: T1, angiotensin converting enzyme (ACE) (Rattus norvegicus, UniProt P47820)
T1 construct: Drugs were injected intravenously; from tissue; host or cells: whole living animal (anesthetized Sprague-Dawley rat); no enzyme isolated
T1 sequence (P47820 36-1313): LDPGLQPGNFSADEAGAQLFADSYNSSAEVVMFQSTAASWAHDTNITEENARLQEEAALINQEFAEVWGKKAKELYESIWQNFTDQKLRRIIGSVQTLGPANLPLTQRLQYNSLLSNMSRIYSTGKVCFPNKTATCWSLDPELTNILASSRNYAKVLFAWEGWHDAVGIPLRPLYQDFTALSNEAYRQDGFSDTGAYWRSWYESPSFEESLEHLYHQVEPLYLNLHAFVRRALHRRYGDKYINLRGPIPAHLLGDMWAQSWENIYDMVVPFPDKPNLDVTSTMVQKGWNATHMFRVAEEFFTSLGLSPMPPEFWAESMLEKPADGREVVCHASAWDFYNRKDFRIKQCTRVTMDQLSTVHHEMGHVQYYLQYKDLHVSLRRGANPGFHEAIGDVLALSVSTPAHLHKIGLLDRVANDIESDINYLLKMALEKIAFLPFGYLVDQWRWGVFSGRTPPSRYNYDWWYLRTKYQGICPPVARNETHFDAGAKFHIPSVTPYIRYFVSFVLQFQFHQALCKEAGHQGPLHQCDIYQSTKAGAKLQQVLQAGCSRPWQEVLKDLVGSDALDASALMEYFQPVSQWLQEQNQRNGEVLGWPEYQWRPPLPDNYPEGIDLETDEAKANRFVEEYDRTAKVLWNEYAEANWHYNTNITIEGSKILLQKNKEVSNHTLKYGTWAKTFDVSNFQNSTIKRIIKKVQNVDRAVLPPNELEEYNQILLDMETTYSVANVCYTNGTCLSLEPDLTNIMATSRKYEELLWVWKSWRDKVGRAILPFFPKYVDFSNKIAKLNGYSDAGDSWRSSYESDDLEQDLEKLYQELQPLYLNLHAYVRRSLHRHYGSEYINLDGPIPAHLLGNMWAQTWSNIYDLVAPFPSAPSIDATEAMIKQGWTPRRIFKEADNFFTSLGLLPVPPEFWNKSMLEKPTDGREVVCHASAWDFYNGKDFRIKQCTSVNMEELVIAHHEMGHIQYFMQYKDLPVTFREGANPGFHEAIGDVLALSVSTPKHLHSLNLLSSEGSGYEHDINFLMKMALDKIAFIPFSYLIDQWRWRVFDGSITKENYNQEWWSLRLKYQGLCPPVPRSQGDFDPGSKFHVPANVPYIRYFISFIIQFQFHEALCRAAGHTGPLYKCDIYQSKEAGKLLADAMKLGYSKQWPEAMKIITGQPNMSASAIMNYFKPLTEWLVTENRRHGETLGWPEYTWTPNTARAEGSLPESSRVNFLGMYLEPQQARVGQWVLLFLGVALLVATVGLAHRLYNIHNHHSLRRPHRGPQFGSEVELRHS
Experiment: ACE inhibition in anesthetized rats: inhibition of angiotensin I pressor response after iv test drug
Format: in vivo, Sprague-Dawley rats
Conditions: anesthetized Sprague-Dawley rats; drug iv; angiotensin I challenge 5 min after dosing; blood pressure response as percent of control; linear regression

SMILES	ID50
CCOC(=O)[C@H](CSCc1ccc(C)cc1)NC(C)C(=O)N1C2CCCCC2C[C@H]1C(=O)O (relative stereo) [4-methylbenzyl-thiomethyl, 1-[N-[1(R)-Ethoxycarbonyl-2-(4-methylbenzylthio)ethyl]-(R,S)-alanyl]-cis,syn-perhydroindole-2(S)-carboxylic acid]	88 µg/kg
CCOC(=O)[C@H](CSCc1ccccc1)NC(C)C(=O)N1C2CCCCC2C[C@H]1C(=O)O.Cl (relative stereo) [Compound 3, 1-[N-[1(R)-Ethoxycarbonyl-2-(benzylthio)ethyl]-(R,S)-alanyl]-cis,syn-perhydroindole-2(S)-carboxylic acid, hydrochloride]	30 µg/kg
CCOC(=O)[C@H](CSCc1ccccc1)N[C@@H](C)C(=O)N1[C@H](C(=O)O)C[C@@H]2CCCC[C@@H]21 (relative stereo) [Compound 4, 1-[N-[1(R)-EthoxYcarbonyl-2-(benzylthio)ethyl]-(S)-alanyl]-cis,syn-perhydroindole-2(S)-carboxylic acid]	29 µg/kg
Br.CCOC(=O)[C@H](CSCc1ccccc1)N[C@H](C)C(=O)N1[C@H](C(=O)O)C[C@@H]2CCCC[C@@H]21 (relative stereo) [Compound 5, 1-[N-[1(R)-Ethoxycarbonyl-2-(benzylthio)ethyl]-(R)-alanyl]-cis,syn-perhydroindole-2(S)-carboxylic acid, hydrobromide]	350 µg/kg
CCOC(=O)[C@H](CSCc1ccc2ccccc2c1)N[C@@H](C)C(=O)N1[C@H](C(=O)O)C[C@@H]2CCCC[C@@H]21.Cl (relative stereo) [Compound 6, 1-[N-[1(R)-Ethoxycarbonyl-2-(2-naphthylmethylthio)ethyl]-(S)-alanyl]-cis,syn-perhydroindole-2(S)-carboxylic acid hydrochloride]	> 100 µg/kg
CCOC(=O)[C@H](CSCc1ccc2ccccc2c1)N[C@H](C)C(=O)N1C2CCCCC2C[C@H]1C(=O)O.Cl (relative stereo) [Compound 7, 1-[N-[1(R)-Ethoxycarbonyl-2-(2-naphthylmethylthio)ethyl]-(R)alanyl]-cis,syn-perhydroindole-2(S)-carboxylic acid hydrochloride]	> 1,000 μg/kg
CCOC(=O)[C@H](CSCCc1ccccc1)N[C@@H](C)C(=O)N1C2CCCCC2C[C@H]1C(=O)O.Cl (relative stereo) [Compound 8, 1-[N-[1(R)-Ethoxycarbonyl-2-(phenylethylthio)ethyl]-(S)alanyl]-cis,syn-perhydroindole-2(S)-carboxylic acid hydrochloride]	32 µg/kg
CCOC(=O)[C@H](CSCCc1ccccc1)N[C@H](C)C(=O)N1[C@H](C(=O)O)C[C@@H]2CCCC[C@@H]21.Cl (relative stereo) [Compound 9, 1-[N-[1(R)-Ethoxycarbonyl-2-(phenylethylthio)ethyl]-(R)alanyl]-cis,syn-perhydroindole-2(S)-carboxylic acid hydrochloride]	> 1,000 μg/kg
C[C@H](N[C@@H](CCc1ccc(C(=O)O)cc1)C(=O)O)C(=O)N1C2CCCCC2C[C@H]1C(=O)O (relative stereo) [Compound 10, 1-[N-[1(S)-Carboxy-3-(4-carboxyphenyl)propyl]-(S)-alanyl]-cis,syn-perhydroindole-2(S)-carboxylic acid]	11 µg/kg
CCOC(=O)[C@H](CSCc1ccccc1)NC(C)C(=O)N1CCC[C@H]1C(=O)O.Cl (stereo partly drawn) [Compound 1, N-(1(R)-Ethoxycarbonyl-2-benzylthioethyl)-(R,S)-alanyl-(S)-proline hydrochloride]	66 µg/kg
CCOC(=O)[C@H](COCc1ccccc1)NC(C)C(=O)N1CCC[C@H]1C(=O)O.Cl (stereo partly drawn) [Compound 2, N-(1(S)-Ethoxycarbonyl-2-benzyloxyethyl)-(R,S)-alanyl-(S)-proline hydrochloride]	130 µg/kg
C[C@H](N[C@@H](CCc1ccccc1)C(=O)O)C(=O)N1CCC[C@H]1C(=O)O [enalapril diacid, reference compound]	15 ± 3 µg/kg

Same assay, conditions: rat, iv, 5 min, read-out: ID50

SMILES	ED50
CCOC(=O)[C@H](CCc1ccccc1)N[C@@H](C)C(=O)N1CCC[C@H]1C(=O)O [enalapril, reference compound]	0.057 ± 0.007 mg/kg
